In patent US9597311B2, “Suppression and prevention of tumors” (priority 2005, dated 2017):

Test: Additional benefits of taking betaine in people
Assay type: in vivo
From the text: While the main benefit of a person or pet taking vitamin C and betaine in combination is the prevention/suppression of tumors, as mentioned before, additional benefits can be obtained depending upon the levels taken. Betaine is known to improve cardiovascular health, and can benefit people with fatty deposits in the liver. […] After only a few weeks of taking the betaine, cholesterol levels are reduced and the ability to lose weight is improved.

SMILES: C[N+](C)(C)CC(=O)[O-] [betaine, trimethylglycine]
- tendency to be light headed when getting up after prolonged squatting or kneeling (after a few doses at about one and a half to about three grams per day, especially older people): considerably lessened
- cholesterol levels (after only a few weeks of taking the betaine): reduced
